{"source": "paper PMC11930985", "about": "(Nature Communications, 2025)", "key": {"pAXL": {"biological_target": "T1, pAXL (Homo sapiens, UniProt P30530)", "T1 construct": "AML blasts were identified within the peripheral blood mononuclear cell population by CyTOF; endogenous in cells", "T1 sequence (P30530 26-894)": "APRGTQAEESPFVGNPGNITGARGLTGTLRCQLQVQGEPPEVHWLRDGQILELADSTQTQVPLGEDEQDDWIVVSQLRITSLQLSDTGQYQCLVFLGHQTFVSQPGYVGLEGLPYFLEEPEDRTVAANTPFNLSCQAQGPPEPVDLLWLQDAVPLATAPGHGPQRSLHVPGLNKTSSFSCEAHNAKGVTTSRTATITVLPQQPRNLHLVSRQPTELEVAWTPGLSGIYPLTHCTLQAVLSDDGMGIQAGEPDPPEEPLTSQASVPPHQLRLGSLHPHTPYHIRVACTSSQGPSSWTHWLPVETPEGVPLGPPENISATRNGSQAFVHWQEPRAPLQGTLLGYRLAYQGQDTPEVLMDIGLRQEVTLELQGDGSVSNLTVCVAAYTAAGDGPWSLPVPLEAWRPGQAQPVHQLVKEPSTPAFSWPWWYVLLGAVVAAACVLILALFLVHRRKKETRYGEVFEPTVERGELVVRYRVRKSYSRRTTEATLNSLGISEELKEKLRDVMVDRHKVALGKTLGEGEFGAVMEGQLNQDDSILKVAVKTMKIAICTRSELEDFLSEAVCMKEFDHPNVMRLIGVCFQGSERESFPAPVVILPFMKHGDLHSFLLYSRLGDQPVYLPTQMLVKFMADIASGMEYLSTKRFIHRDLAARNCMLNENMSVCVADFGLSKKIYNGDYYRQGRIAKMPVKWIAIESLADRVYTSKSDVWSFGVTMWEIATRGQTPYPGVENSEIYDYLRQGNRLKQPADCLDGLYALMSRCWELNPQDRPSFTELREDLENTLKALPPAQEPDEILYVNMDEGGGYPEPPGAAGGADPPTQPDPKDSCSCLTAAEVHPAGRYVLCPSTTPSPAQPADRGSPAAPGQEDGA", "experiment": "CyTOF maximal pAXL inhibition in AML blasts vs bemcentinib concentration", "type": "in vivo", "description": "Pharmacodynamic endpoints included the measurement of inhibition of pAXL, pERK, pAKT, pS6 and pSTAT1/3/5 in blast cells (defined as cells with abnormal surface marker expression as compared to healthy donor peripheral blood mononuclear cells and undefined/immature myeloid cells (defined as cells carrying myeloid markers but lacking distinguishing terminal differentiation markers). Mass cytometry time of flight (CyTOF) was used for the determination of the pharmacodynamic markers using a previously validated and tested panel of mass-tagged antibodies[39],[40]. The antibodies in the panel are listed in Supplementary Table 5. Briefly, fixed leukocytes from peripheral blood were barcoded using a 20-plex metal barcoding kit (Standard Biotools, Cell-ID 201060) according to manufacturer’s protocol, allowing all the samples from a single individual to be stained and analysed in parallel. All analysis runs included barcoded peripheral blood mononuclear cells (PBMCs) from at least one healthy donor and an identical barcoded reference sample (mix of PBMCs from six healthy donors). Barcoded cells (approx. 6 × 10^6) were treated with FC receptor block (Octagam, 1:1000 (Octapharma) in MaxPar cell staining buffer (CSB, Standard Biotools 201068), 15 min, room temperature) and treated with heparin (100 IU/mL in CSB, 20 min) to reduce non-specific staining artefacts. The sample was then stained with an optimised mixture of mass-tagged surface antibodies in a total staining volume of 600 μL (30 min, room temperature). Subsequently, the sample was permeabilized with cold (-20 °C) 100 % methanol (15 min, on ice), re-treated with heparin, and stained with a panel of intracellular mass-tagged antibodies (as described above). DNA was labelled with iridium-191/193 by incubation in 0.1 nM Ir-nucleic acid intercalator (Standard Biotools 201192) diluted in MaxPar PBS (Standard biotools 201058) containing 4% PFA overnight at 4 °C. […]\nFor each population, marker, and sample, the 95th percentile of the non-transformed expression values was calculated. […]"}, "Flt4": {"tested_on": "Flt4", "set-up": "method as in Investigator's Brochure (IB) version 5.0", "conditions": "ref Investigator's Brochure (IB) version 5.0; cited from earlier work"}}, "note": "Where “and” joins values, the source holds several entries; their conditions need not be identical. Equal entries are not always repeated."}
{"smiles": "Nc1nc(Nc2ccc3c(c2)CC[C@@H](N2CCCC2)CC3)nn1-c1cc2c(nn1)-c1ccccc1CCC2", "note": "[Bemcentinib]", "values": [{"measurement": "Maximum inhibition (percent) pAXL(Y779)", "setting": "pAXL; Figure 4, individual patients (Pt 1-13)", "result": "14.7% and 1.3% and 25.7% and 0.4% and 26.3% and 2.9% and 13.4% and 0% and 16.1% and 15.5% and 11.4% and 7%"}, {"measurement": "Plasma concentrations at which inhibition of pAXL was seen", "setting": "pAXL; peripheral blood, DE cohort", "result": "45–347 ng/mL"}, {"measurement": "Time to intracellular phospho-signaling changes vs pre-treatment", "setting": "pAXL; peripheral blood, DE cohort", "result": "≤ 4", "unit": "h"}, {"measurement": "IC50", "setting": "Flt4", "result": 41, "unit": "nM"}]}
